Experimental data: patent US7825294B2 (priority 2006, dated 2010)

How the values were obtained:
Assay type in all cases: cell-based
[1] = test system: Fusarium graminearum (FGR); conditions: standard plate assay, 4,000 spores/mL, ¼× potato dextrose broth, 28° C., 24 to 48 hours
[2] = test system: Fusarium verticillioides (FVE)
Diplodia maydis (DMA) = conditions: standard plate assay, 6,000 spores/mL, ¼× potato dextrose broth, 28° C., 24 to 48 hours
[3] = test system: Colectotricum graminicola (CGR); conditions: standard plate assay, 4,000 spores/mL, ¼× Czapec-Dox V8, 28° C., 24 to 48 hours

Domain D (SIFNHCGRHAYYDEAKKECICHDAGKDFLKKHKTCACPQGEKWHHIERKCKA; Domain D of SEQ ID NO34)
antifungal activity against FGR [1]: showed antifungal activity to varying extents

Domain C (KKDKHHDHCGKHASYSEEKKECVCHNKAEVFERKHKKCKKHISLR; Domain C of SEQ ID NO34)
antifungal activity against FGR [1]: showed antifungal activity to varying extents

SEQ ID NO:1: antipathogenic polypeptide (52 amino acids) isolated from a fungal fermentation broth extract of Fusarium oxysporum, designated LB-12265 (SILHHCGKHASWDHAKSECVCHDSGKVYTKKHHKCKCPKGEKWHHIEKKCKK; PEPTIDE (1)...(52) Predicted mature LB-12265 peptide; listed as Fusarium oxysporum)
antifungal activity against FVE [2]: showed antifungal activity | antifungal activity against FGR [1]: showed antifungal activity | antifungal activity against DMA (Diplodia maydis (DMA)): showed antifungal activity | antifungal activity against CGR [3]: showed antifungal activity

Domain B (SPKKDEHEHCGKHASFNEEKKECVCHDKSEVFEKHHKKCKKAKDEKKKDDKKH; Domain B of SEQ ID NO34)
antifungal activity against FGR [1]: showed antifungal activity to varying extents

SEQ ID NO:3: deduced amino acid sequence encoded by a nucleotide sequence from a fungal contaminant, most likely Fusarium, of a proprietary maize EST library (SILHHCGKHASWDHAKSECVCHDSGKVYTKKHHKCKCPKGEKWHHIEKKCKK; Deduced amino acid sequence encoded by SEQ ID NO4 from a fungal contaminant of Zea mays)
antifungal activity against FVE [2]: has antifungal activity

B1: SEQ ID NO:11: Q174 protein isolated from Hypocrea lixii (Accession No. CAA64974) (protein, listed as Hypocrea lixii)
chain: MLLKQVLVAALLSLSSVTAFPNPNNLHDVEARDVEDNLVARGGSHDCGSYASWNNGKNCCVCKDNGKNYDSKSKSCNCPSGYTWNGHQCVHDCGKDATWQYGNCVCNKKGEVYNPKDKTCSCPPGQYWNGKNCQVDCGKDASYDYKQKKCVCKKHGEIYNSNSKTCSCPPGQVWNGYACVVDCGKEAHFDNKQKKCVCNNYGEIYNSGSKTCACPGGQYFNGKKCVCPYGKVWNGKQCVEDCGKEAHFDYNQKKCVCKNNGEVYNSAKKTCSCPDGQYWNGKQCVCPYGQVFNGKQCVPDCGKEATFDYNQKKCVCKNKGEIYDSKTKTCSCPDGQVWNGKQCVCPYGQVFNGKQCVPDCGKDATYDYNQKKCVCKNKGEVFDQKTKTCSCPDGQYWNGKQCACPYGQIFNGKQCVPDCGKDATYDYNQKKCVCKNKGEVFDQKTKTCSCPDGQYWNGKQCVCPYGKIFDGKQCVEDCGKDAHFDNNQKKCVCNKNGEIYDSKSKTCSCPDSQYWDGSKCACPYGTVWDGKHCNQDCGKDAHFDSNQKKCVCNKQGEVYDSKSKTCSCPDGQYWDGSKCACPYGKVWDGKQCVPNCGKDASYDSKQNKCVCKNIGQVFDTKSLTCSCPAGTSWNGHACVQDCGKDAHYDSNQKCCVCNNKGESYDSKSKTCSCPGNQYWDGNKCACPYGSTWDSSKKTCKMNYP
antifungal activity against FVE [2]: showed antifungal activity to varying extents | antifungal activity against FGR [1]: showed antifungal activity to varying extents | antifungal activity against DMA (Diplodia maydis (DMA)): showed antifungal activity to varying extents | antifungal activity against CGR [3]: showed antifungal activity to varying extents
